The nature of series [1]: Example 13: calculation of predicted human dose from mouse and human PK. The conditions noted are these: for AUC: mouse, plasma. The procedure:
Using the PK data above in mice and humans, a human efficacious dose was estimated by identifying a dose in humans that would result in plasma exposures similar to the efficacious dose in the oncology models in mice. The 100 mg/kg/day dose studied for PK in mice and the 180 mg dose studied for PK in humans were the relevant doses used in this estimation.
This predicted human efficacious dose for tozadenant for treating cancer based on the measured PK data can be contrasted to the predicted dose that would be calculated by the less informed but standard approach of using body surface area comparisons between mice and humans, whereby the equivalent dose in humans would be calculated by dividing the dose in mice by 12.3 (see, e.g., Nair A B, Jacob S. A simple practice guide for dose conversion between animals and human. J Basic Clin Pharma 2016;7:27-31). This approach would result in a predicted efficacious dose of 0.24 mg/kg in humans, which is equivalent to approximately 17 mg in a typical 70 kg human. Thus, this prediction using the standard method results in a targeted human dose more than an order of magnitude higher than the one informed by PK.

In series [2] the test system is B16F10 CD73 melanoma metastases. Kind of series: Example 9: number of lung tumor metastases in the B16F10 CD73 tumor mouse model. Format: in vivo, C57/BL6 mice (A2A-/- or Wild-Type). The procedure:
The C57/BL6 mouse melanoma cell line B16F10 CD73 was cultured in DMEM supplemented with 10% FCS, GlutaMAX, and penicillin/streptomycin. Tumor cells are periodically verified to be Mycoplasma negative by the Victorian Infectious Diseases References
Lab (Melbourne, VIC, Australia) by PCR analysis. 2×10^5 cells were resuspended in PBS and injected i.v. into C57/BL6 mice (A2A^−/− or Wild-Type) in a 200 μL volume. At day 14 lungs were excised and the number of metastases counted under the dissecting microscope. Mice were dosed with either SYN-115 (Batch 71236AA002) at 100 mg/kg or vehicle control once-daily via oral gavage on days 0 to 13. To calculate a dose of SYN-115 mouse weight was estimated to be 20 g per mouse. Therefore, 100 mg/kg=2 mg per mouse in 200 μL, which is equivalent to 10 mg/ml. To make up 40 mL, 400 milligrams of SYN-115 was weighed and added into a Falcon tube, then 1 mL of Tween 80 was added and mixed into a paste and then 39 mL of 1% Methyl Cellulose was added. The solution was vortexed and then left on a rotating mixer for at least 2 hours and maintained at 4° C.

Series [3] deals with AT-3ova CD73+ tumour (mouse breast carcinoma cell line AT-3). Kind of series: Example 1: anti-tumor responses of SYN-115 in the AT-3ova CD73+ tumour cell mouse model (tumor area). Format: in vivo, C57/BL6 mice. The protocol: The C57BL/6 mouse breast carcinoma cell line AT-3 was obtained from Dr. Trina Stewart (Griffith University, Nathan, QLD, Australia. Tumor cell lines were transduced to express chicken ovalbumin peptide and CD73 as previously described (1, 2, 3). Tumor cells are periodically verified to be Mycoplasma negative by the Victorian Infectious Diseases References Lab (Melbourne, VIC, Australia) by PCR analysis. Tumor cells were grown in DMEM supplemented with 10% FCS, GlutaMAX, and penicillin/streptomycin. 5×10^5 cells were resuspended in PBS and injected s.c. into C57/BL6 mice in a 100 μL volume. At day 14 tumors were measured and mice were randomized into distinct treatment groups to ensure that each group had tumors of similar size at the onset of treatment. Mice were treated i.p. at days 14, 18, 22, and 26 with either isotype control (2A3; 200 μg/mouse) or anti-PD-1 mAb (RMP1-14, 200 μg/mouse) and where indicated SYN-115 (Batch 71236AA002) at the indicated dose or vehicle control once-daily via oral gavage on days 14 to 29. To calculate a dose of SYN-115, mouse weight was estimated to be 20 g per mouse. Therefore, 100 mg/kg=2 mg per mouse in 200 μL, which is equivalent to 10 mg/ml. […] Tumor sizes were determined by width * length and mice were culled when tumors reached the ethical limit of 150 mm^2.

Series [4] in a line: Example 12: pharmacokinetics of tozadenant tablets (180 mg single dose, bioequivalence study) in humans. Format: in vivo. Conditions: both sexes, plasma, oral, 180 mg (approximately 2.6 mg/kg in 70 kg human). The protocol:
In a clinical study, tozadenant was administered PO as tablets under fasted conditions, as a single administration at 180 mg. This was an open-label, single-center, randomized, 2-treatment, 2-way crossover bioequivalence study testing 2 different tablet formulation of tozadenant. A modified formulation of tozadenant has been developed for use in Phase 3 studies. The modified formulation for use in Phase 3 studies contains four fewer excipients compared to the Phase 2 formulation. This study, therefore, evaluated the bioequivalence of the Phase 3 formulation and the Phase 2 formulation.
Thirty-six (36) healthy adult, non-tobacco using male and female subjects were enrolled to ensure completion by 32 subjects. […]
The following PK parameters were calculated from the individual plasma tozadenant concentration-time data. All PK parameters were calculated using Phoenix WinNonlin® Version 6.3. […] For the calculation of the PK parameters, concentration values below the limit of quantitation (BLQ) were treated as zero before the first quantifiable concentration and as missing thereafter. […]
AUC and Cmax parameters were not to be calculated for subjects with only 2 or less consecutive time points with detectable concentrations. […]
Tozadenant was quantitated using a validated liquid chromatography/tandem mass spectrometry method with a lower limit of quantitation (LLOQ) of 0.00500 μg/mL.

The text below walks through data of patent US20220088024A1, “METHODS FOR TREATING CANCER USING TOZADENANT” (Biotie Therapies, Inc., priority 2018, published 2022).

Several values for one entry are separate records, joined by “and”; a condition that tells them apart may be missing. Equal entries are not always repeated.

In the case of `COc1ccc(N2CCOCC2)c2sc(NC(=O)N3CCC(C)(O)CC3)nc12` [SYN-115, 4-hydroxy-4-methyl-piperidine-1-carboxylic acid (4-methoxy-7-morpholin-4-yl-benzothiazol-2-yl)-amide], the AUC in series [1] (oral, mice, 3 mg/kg efficacious dose, read-out: Point estimate AUC (linear extrapolation)) was around 106 ng·h/mL; in series [1] (2 mg/kg dose in mice, read-out: Target AUC in humans), 71 ng·h/mL; in series [4] it was 20600 ng·h/mL. Moreover, the entries for the “Predicted human dose achieving target AUC” value in series [1] (target AUC of 71 hr*ng/mL (2 mg/kg mouse dose)) and in series [1] (target AUC of 106 hr*ng/mL (3 mg/kg mouse dose)) were “approximately 0.6 mg” and “approximately 0.9 mg”, respectively. For the same compound, the “Number of Tumor Metastases (lung), individual mice” value in series [2] (100 mg/kg once-daily oral gavage days 0 to 13, counted day 14, Batch 71236AA002) was 53 and 108 and 107 and 61 and 72 and 64 and 40 and 24 and 56 and 82. The “Efficacy on tumor metastases” value in series [2] (SYN-115 100 mg/kg once-daily oral, days 0 to 13) is given as “No efficacy”. Also, the “Tumor size (width * length)” value is 23.5 mm^2 and 27.03 mm^2 and 30.74 mm^2 and 17.5 mm^2 and 33.6 mm^2 in series [3] (2A3+SYN-115 (100 mg/kg), Day 6); 13.76 mm^2 and 14 mm^2 and 17.2 mm^2 and 17.49 mm^2 and 26.22 mm^2 and 26.4 mm^2 in series [3] (Anti-PD-1 (200 ug)+SYN-115 (100 mg/kg), Day 0).
